Source: patent US20100314319A1, “HALOGENATED AMIDES AS BIOCIDES FOR BIOFILM CONTROL” (priority 2009, published 2010)
Read-outs that look alike come from different tables or passages of the source.

Key:
[1] = system: amoeba fed Legionella pneumophila (AfLp); type: cell-based; settings: for Active concentration required for complete kill (6 log reduction): Amoeba fed Legionella
Free Legionella = type: cell-based, Legionella pneumophila
[2] = system: Biofilms of P. aeruginosa ATCC 10145; assay: Efficacy against biofilm associated bacteria (Calgary biofilm device, viable sessile bacteria); type: cell-based; settings: pH 8.5, 37° C.
Description: Biofilms of P. aeruginosa ATCC 10145 are grown in Calgary biofilm devices (Innovotech, Alberta, Canada) for 42 hours. Trypticase Soy Broth (TSB) is used in the biofilm devices as the culture medium. After the incubation period, loosely associated cells are removed from the biofilms that develop on the surfaces of the submerged pegs by rinsing with sterile 0.85% NaCl. The biofilms are than treated with DBMAL (inventive biocide), glutaraldehyde (comparative biocide), or DBNPA (comparative biocide). A dilute salts solution is used as the test medium for the efficacy studies. The salts solution contains (in grams per liter of deionized water) CaCl2, 0.2203 g; MgSO4, 0.1847 g; and NaHCO3, 0.2033 g. The final pH of the solution is adjusted to 8.5.
The concentrations of each active tested are 100 ppm, 50 ppm, 25 ppm, 12.5 ppm in the salts solution and the contact times are for 4 hours, 24 hours and 48 hours, respectively. In all cases, the incubation temperature is 37° C. Sterile deionized water is used as a non-biocide treated control. After each contact time, the pegs are washed with sterile 0.85% NaCl and the bacteria are released from the biofilm on the surface of each peg into sterile 0.85% NaCl by sonication (see Ceri et al., Journal of Clinical Microbiology 1999, 37: 1771-1776). The viable bacteria are then enumerated in TSB, using a serial dilution method.

[3] = buffer
[4] = system: Biofilms of P. aeruginosa ATCC 10145; assay: Biofilm removal evaluation (crystal violet, OD 580 nm); type: cell-based; settings: 25, 50, 100 ppm, 4 hr and 24 hr, 37° C.
Description: The Calgary biofilm device is used to prepare biofilms of P. aeruginosa ATCC 10145. TSB is used as the culture medium and biofilms are allowed to develop over a period of 42 hours. […] Concentrations of the actives tested are 25 ppm, 50 ppm, 100 ppm in sterile diluted salts solution as the test medium. The treatment is conducted at 37° C. for 4 hr and 24 hr, respectively. Sterile deionized water is used as an untreated control. After treatment, the pegs are washed with sterile 0.85% NaCl and then the biomass/biofilm on each peg is measured (see Stepanovic et al., Journal of Microbiological Methods, 2000, 40, 175-179). First the biofilm is fixed with 99% methanol and, after air drying, the pegs are stained with 2% (w/v) crystal violet and washed with tap water. The pegs are then air dried and the crystal violet bound to the biofilm is extracted with 33% glacial acetic acid. The optical density (OD) of the extracted solution is measured at 580 nm. The results are depicted in FIG. 2.

[5] = Stability against hydrolysis (HPLC level remaining in buffered dilute solutions)

With CCCCCCCCCC[N+](C)(C)CCCCCCCCCC.[Cl-] [DDAC, didecyl dimethyl ammonium chloride] the “Active concentration required for complete kill (6 log reduction)” value ([1]; 2 hours exposure) was 60 ppm, the “Active concentration required for complete kill (6 log reduction)” value ([1]; 24 hours exposure) was 40 ppm and the “Active concentration required for complete kill (6 log reduction)” value (Free Legionella; 2 hours exposure) was 20 ppm. For the same compound, the “Active concentration required for complete kill (6 log reduction)” value (Free Legionella; 24 hours exposure) was 15 ppm.
In the case of NC(=O)C(Br)(Br)C(N)=O [DBMAL, 2,2-Dibromomalonamide], the “effectiveness against sessile bacteria (reduction of viable sessile bacteria)” value ([2]; 12.5-100 ppm, 4, 24 and 48 hours, in general) is reported as “more effective than DBNPA”, the “effectiveness against sessile bacteria (reduction of viable sessile bacteria)” value ([2]; 25 ppm active concentration, efficacy increases with contact time) is reported as “very effective” and the “level needed for 6 log kill of AfLp relative to that needed for free cells” value ([1]; corresponding time points (2 and 24 hours)) is reported as “about twice”. The “level remaining (HPLC)” value ([3]; 0 h, pH 6.9) was 3746, the “level remaining (HPLC)” value ([3]; 0 h, pH 8) was 3866 and the “level remaining (HPLC)” value ([3]; 0 h, pH 9) was 4576. For the same compound, the “level remaining (HPLC)” value ([3]; 2 h, pH 6.9) was 4612, the “level remaining (HPLC)” value ([3]; 2 h, pH 8) was 4031 and the “level remaining (HPLC)” value ([3]; 2 h, pH 9) was 4022. For the same compound, the “level remaining (HPLC)” value ([3]; 24 h, pH 6.9) was 3857, the “level remaining (HPLC)” value ([3]; 24 h, pH 8) was 4191 and the “level remaining (HPLC)” value ([3]; 24 h, pH 9) was 3891. The “level remaining (HPLC)” value ([3]; 48 h, pH 6.9) was 3935, the “level remaining (HPLC)” value ([3]; 48 h, pH 8) was 4187 and the “level remaining (HPLC)” value ([3]; 48 h, pH 9) was 3603. For the same compound, the “level remaining (HPLC)” value ([3]; 72 h, pH 6.9) was 3966, the “level remaining (HPLC)” value ([3]; 72 h, pH 8) was 4290 and the “level remaining (HPLC)” value ([3]; 72 h, pH 9) was 4018. The “level remaining (HPLC)” value ([3]; 96 h, pH 6.9) was 4212, the “level remaining (HPLC)” value ([3]; 96 h, pH 8) was 3883 and the “level remaining (HPLC)” value ([3]; 96 h, pH 9) was 3456. The biofilm removal [4] was “overall better biofilm removal than DBNPA”, the “Calculated Percent Reduction of the Active Ingredient” value (from here on “Calculated Percent Reduction”) ([5]; pH 6.9, T = 30 C., 48 hours) was 0% and the “Calculated Percent Reduction” value ([5]; pH 6.9, T = 30 C., 72 hours) was 0%. For the same compound, the “Calculated Percent Reduction” value ([5]; pH 8, T = −1 C., 48 hours) was 0%, the “Calculated Percent Reduction” value ([5]; pH 8, T = −1 C., 72 hours) was 0% and the “Calculated Percent Reduction” value ([5]; pH 8, T = −1 C., 96 hours) was 0%. The “Calculated Percent Reduction” value ([5]; pH 9, T = −1 C., 48 hours) was 21%, the “Calculated Percent Reduction” value ([5]; pH 9, T = −1 C., 72 hours) was 12% and the “Calculated Percent Reduction” value ([5]; pH 9, T = −1 C., 96 hours) was 24%.
For N#CC(Br)(Br)C(N)=O [DBNPA, 2,2-Dibromo-3-nitrilopropionamide], the “level remaining (HPLC)” value ([5]; pH 6.9, T = 30 C., 0 hours) was 3991, the “level remaining (HPLC)” value ([5]; pH 6.9, T = 30 C., 2 hours) was 4155 and the “level remaining (HPLC)” value ([5]; pH 6.9, T = 30 C., 24 hours) was 2557. For the same compound, the “level remaining (HPLC)” value ([5]; pH 6.9, T = 30 C., 48 hours) was 1361, the “level remaining (HPLC)” value ([5]; pH 6.9, T = 30 C., 72 hours) was 918 and the “level remaining (HPLC)” value ([5]; pH 6.9, T = 30 C., 96 hours) was 658. For the same compound, the “level remaining (HPLC)” value ([5]; pH 8, T = −1 C., 0 hours) was 4068, the “level remaining (HPLC)” value ([5]; pH 8, T = −1 C., 2 hours) was 3998 and the “level remaining (HPLC)” value ([5]; pH 8, T = −1 C., 24 hours) was 3506. For the same compound, the “level remaining (HPLC)” value ([5]; pH 8, T = −1 C., 48 hours) was 3578, the “level remaining (HPLC)” value ([5]; pH 8, T = −1 C., 72 hours) was 3149 and the “level remaining (HPLC)” value ([5]; pH 8, T = −1 C., 96 hours) was 3070. For the same compound, the “level remaining (HPLC)” value ([5]; pH 9, T = −1 C., 0 hours) was 3842, the “level remaining (HPLC)” value ([5]; pH 9, T = −1 C., 2 hours) was 2818 and the “level remaining (HPLC)” value ([5]; pH 9, T = −1 C., 24 hours) was 1256. The “level remaining (HPLC)” value ([5]; pH 9, T = −1 C., 48 hours) was 659, the “level remaining (HPLC)” value ([5]; pH 9, T = −1 C., 72 hours) was 363 and the “level remaining (HPLC)” value ([5]; pH 9, T = −1 C., 96 hours) was 239.
With O=CCCCC=O [Glutaraldehyde] the “effectiveness against sessile bacteria (reduction of viable sessile bacteria)” value ([2]; 50 ppm active concentration, 48 h treatment) was “low effectiveness”, the “Active concentration required for complete kill (6 log reduction)” value ([1]; 2 hours exposure) was 20 ppm and the “Active concentration required for complete kill (6 log reduction)” value ([1]; 24 hours exposure) was 15 ppm. The “Active concentration required for complete kill (6 log reduction)” value (Free Legionella; 2 hours exposure) was 10 ppm and the “Active concentration required for complete kill (6 log reduction)” value (Free Legionella; 24 hours exposure) was 5 ppm.
